In patent publication US20230107216A1, “PANTETHEINE DERIVATIVES AND USES THEREOF” (Comet Therapeutics, Inc., priority 2018, published 2023):

Legend:
[1] = system: Vitamin B12 deficiency (Cbl−/− diet) mouse model; test: Vitamin B12 deficiency mouse model: bone marrow immunophenotyping (M1/M2 macrophages); assay type: in vivo, C57BL/6 mice; conditions: 50 mpk IP BID; for Ratio of M1/M2 macrophages in bone marrow: mice on the cbl−/− diet (untreated: M1/M2 ratio of 6); for Ratio of M1/M2 macrophages compared with mice on a control diet: mice on the cbl−/− diet
Experimental: (§1) A vitamin B12 deficiency mouse model was used following the methods described at Ghosh et al 2016.
(§2) Animal maintenance and feeding. Female weanling C57BL/6 mice (n=65) were obtained at 3 weeks of age from Shanghai Sippe-Bk Lab Animal Co., Ltd. The mice were housed in a SPF environment and maintained at 20° C.±6, under standard lighting conditions (12-h light/dark cycle). Animals were divided into 5 animals per cage during modelling, and 3 animals per cage during compound test. The 3-week old mice were fed ad libitum with either AIN-76A control diet (D10001i) designated as control diet group or the same diet deficient in vitamin B12 (D07012902) with pectin as the source of fiber (designated as Cbl−/− cobalamin deficient) referred to as B12R+ by Ghosh et al. (Research Diets Inc., New Brunswick, N.J., USA). Cobalamin-restricted diet with pectin (B12R+) contained 50 g pectin/kg diet, because it has been shown earlier that pectin binds the intrinsic factor in the intestine and makes vitamin B12 less bioavailable. The control diet contained 50 g cellulose/kg diet as the fiber source instead of pectin. The mice also had ad libitum access to deionized water. Food intake and body weights were recorded every week.
Compound treatment. After 6 weeks of feeding on either control or Cbl−/− diet, 9-week-old mice on Cbl−/− diet were randomly assigned into 5 groups with 3 mice per group per treatment. Mice in each group were IP treated with vehicle (1% HPBCD, Sigma, H107) or were dosed at 50 mpk with Compound 1 or Compound 410 BID. One group of mice were sacrificed at 24h after the first dose. 2nd group of mice were sacrificed at 72h after the first dose. 3rd group of mice were sacrificed after 168h (i.e 7 days) after the first dose. 4th group of mice were fasted for 12h before sacrificing after 72h of the first dose. 5th group of mice were first fasted for 12h before any vehicle or compound treatment and sacrificed after 72h after the first dose.
Tissue and sample collection. At above specified timepoints, mice were weighed and anesthetized with CO2 before sample collection. For blood collection, the chest was opened to expose the heart. Up to 300 μl blood was drawn from the left ventricle with 1 ml syringe rinsed with EDTA-Na and dispensed into a K3EDTA mini collect tube (Greiner Bio-One) for haematology analysis. Then a new syringe was used to draw remaining blood from heart as much as possible. Serum was isolated by centrifugation at 5000 rpm for 10 min, aliquoted and kept at −80° C. until further use. For tissue collection after blood was drawn, mice were perfused with ice cold saline from the left ventricle. Heart, liver, kidney, spleen, brain was weighed after isolation. Then left leg was kept in ice cold PBS and bone marrow was isolated for further immunophenotype analysis. […]

[2] = system: Vitamin B12 deficiency (Cbl−/− diet) mouse model; test: Vitamin B12 deficiency mouse model: muscle strength by grip test; assay type: in vivo, mice; conditions: after 17 days of 50 mpk QD, IP
Experimental: Mice at 18 weeks of age were either fed on control diet (n=12 mice) or cbl−/− diet (n=30 mice) for 15 weeks. Grip strength test was measured by using a Grip Strength test meter for mice and rats (Jiangsu, SANS Biological Technology, CO. LTD, SA417) and recorded as day zero grip strength analysis. Briefly, machine was turned on (push peak) and calibrated to zero. Front leg strength was measured by pulling the mice away from the bar by holding the tail of the mice. Total 5 values were measured for each mouse. After the measurement the cbl−/− mice were divided into three groups of N=10 mice per group. Each group received either vehicle (0.1% saline) or Compound 410 or Compound 500, IP at the dose of 50 mpk QD. […]

[3] = system: Vitamin B12 deficiency (Cbl−/− diet) mouse model; test: Vitamin B12 deficiency mouse model: liver protein determination (ELISA, TNFα, protein carbonyls); assay type: in vivo, C57BL/6 mice
Experimental: as §1, §2
Compound treatment. After 6 weeks of feeding on either control or Cbl−/− diet, 9-week-old mice on Cbl−/− diet were randomly assigned into 5 groups with 3 mice per group per treatment. […]

Structure (SMILES) | Ratio of M1/M2 macrophages in bone marrow [1] | Ratio of M1/M2 macrophages compared with mice on a control diet [1] | Grip strength ([2]; mice on the cbl−/− diet (36.5 g; control diet 59 g)) | Recovery of grip strength ([2]; mice on the cbl−/− diet) | Protein Carbonyl in liver homogenates ([3]; mice on the cbl−/− diet (untreated 25.4 pg/ug; control diet 16.6 pg/ug)) | TNF-α in liver homogenates ([3]; mice on the cbl−/− diet (untreated 171.8 pg/ug; control diet 121.46 pg/ug))
CC(C)(CO)[C@@H](O)C(=O)NCCC(=O)NCCSC(=O)CCC(=O)O [Compound 1, (R)-4-((2-(3-(2,4-dihydroxy-3,3-dimethylbutanamido)propanamido)ethyl)thio)-4-oxobutanoic acid] | 3.967 | statistically indistinguishable | – | – | – | –
COC(=O)CC(C(C)=O)C(=O)SCCNC(=O)CCNC(=O)[C@H](O)C(C)(C)CO (some centres unmarked) [Compound 410] | 3.87 | statistically indistinguishable | 57.7 g | recovered grip strength to near the level of mice on the control diet | 11.1 pg/µg | 62 pg/µg
